Assay results: patent publication US9695155B2, “Herbicidal substituted pyrimidinyloxy benzene compounds” (E. I. DU PONT DE NEMOURS AND COMPANY, priority 2013, dated 2017)

Key:
soybean = assay: Test C postemergence; format: in vivo, Glycine max; conditions: for Plant response rating (0 to 100), Soybean: 0 is no effect, 100 is complete control; for Soybean plant response rating: 31 g ai/ha; for Soybean plant response rating / Plant response rating, Soybean: scale 0 to 100 (0 no effect, 100 complete control)
Method in brief: (§1)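 Visual injury score versus untreated controls, 0 = no effect, 100 = complete control, taken 13 to 15 days after treatment in the greenhouse. Pre-emergence pots held loam/sand; post-emergence plants grew in sphagnum peat/vermiculite mix and were sprayed at the 1- to 4-leaf stage.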

pigweed = assay: Test A postemergence; format: in vivo, Amaranthus retroflexus; conditions: 0 to 100 scale where 0 is no effect and 100 is complete control; for Pigweed plant response rating: 125 g ai/ha; for Plant response rating, Pigweed: 500 g ai/ha
Method in brief: (§2)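 Visual injury scored 0–100 (100 = complete control) against untreated controls about 10 days after treatment in a greenhouse. Test chemicals, formulated with surfactant in non-phytotoxic solvent, were sprayed on soil preemergence or on 2-10 cm, one- to two-leaf plants postemergence.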

barnyardgrass [1] = assay: Test A preemergence; format: in vivo, Echinochloa crus-galli; conditions: for Barnyardgrass plant response rating: 500 g ai/ha
Method in brief: as §2

large (Lg) crabgrass [2] = assay: Test C postemergence; format: in vivo, Digitaria sanguinalis; conditions: for Plant response rating (0 to 100), Crabgrass, Large: 0 is no effect, 100 is complete control; for Crabgrass, Large plant response rating: 31 g ai/ha; for Crabgrass, Large plant response rating / Plant response rating, Crabgrass, Large: scale 0 to 100 (0 no effect, 100 complete control)
Method in brief: as §1

galium = assay: Test C postemergence; format: in vivo, Galium aparine; conditions: for Plant response rating (0 to 100), Galium: 0 is no effect, 100 is complete control; for Galium plant response rating: 31 g ai/ha; for Galium plant response rating / Plant response rating, Galium: scale 0 to 100 (0 no effect, 100 complete control)
Method in brief: as §1

lambsquarters = assay: Test C postemergence; format: in vivo, Chenopodium album; conditions: for Plant response rating (0 to 100), Lambsquarters: 0 is no effect, 100 is complete control; for Lambsquarters plant response rating: 31 g ai/ha; for Lambsquarters plant response rating / Plant response rating, Lambsquarters: scale 0 to 100 (0 no effect, 100 complete control)
Method in brief: as §1

large (Lg) crabgrass [3] = assay: Test A postemergence; format: in vivo, Digitaria sanguinalis; conditions: 0 to 100 scale where 0 is no effect and 100 is complete control; for Crabgrass, Large plant response rating: 125 g ai/ha; for Plant response rating, Crabgrass, Large: 500 g ai/ha
Method in brief: as §2

Italian ryegrass = assay: Test C postemergence; format: in vivo, Lolium multiflorum; conditions: for Plant response rating (0 to 100), Ryegrass, Italian: 0 is no effect, 100 is complete control; for Ryegrass, Italian plant response rating: 31 g ai/ha; for Ryegrass, Italian plant response rating / Plant response rating, Ryegrass, Italian: scale 0 to 100 (0 no effect, 100 complete control)
Method in brief: as §1

ragweed = assay: Test C postemergence; format: in vivo, Ambrosia elatior; conditions: for Plant response rating (0 to 100), Ragweed: 0 is no effect, 100 is complete control; for Ragweed plant response rating: 31 g ai/ha; for Ragweed plant response rating / Plant response rating, Ragweed: scale 0 to 100 (0 no effect, 100 complete control)
Method in brief: as §1

rice = assay: Test B flooded paddy test; format: in vivo, Oryza sativa; conditions: Flood, 250 g ai/ha; 0 to 100 scale where 0 is no effect and 100 is complete control
Method in brief: (§3)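 2-leaf stage plants; pots flooded to 3 cm, compound added to paddy water, depth maintained. Greenhouse 13–15 d. Visual rating vs untreated controls, 0 (no effect) to 100 (complete control); dash = no result.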

barnyardgrass [4] = assay: Test C postemergence; format: in vivo, Echinochloa crus-galli; conditions: for Plant response rating (0 to 100), Barnyardgrass: 0 is no effect, 100 is complete control; for Barnyardgrass plant response rating: 31 g ai/ha, 13 to 15 days; for Barnyardgrass plant response rating / Plant response rating, Barnyardgrass: scale 0 to 100 (0 no effect, 100 complete control)
Method in brief: as §1

sedge, umbrella = assay: Test B flooded paddy test; format: in vivo, Cyperus difformis; conditions: Flood, 250 g ai/ha; 0 to 100 scale where 0 is no effect and 100 is complete control
Method in brief: as §3

yellow nutsedge = assay: Test C postemergence; format: in vivo, Cyperus esculentus; conditions: for Plant response rating (0 to 100), Nutsedge, Yellow: 0 is no effect, 100 is complete control; for Nutsedge, Yellow plant response rating: 31 g ai/ha; for Nutsedge, Yellow plant response rating / Plant response rating, Nutsedge, Yellow: scale 0 to 100 (0 no effect, 100 complete control)
Method in brief: as §1

blackgrass = assay: Test C postemergence; format: in vivo, Alopecurus myosuroides; conditions: for Plant response rating (0 to 100), Blackgrass: 0 is no effect, 100 is complete control; for Blackgrass plant response rating: 31 g ai/ha; for Blackgrass plant response rating / Plant response rating, Blackgrass: scale 0 to 100 (0 no effect, 100 complete control)
Method in brief: as §1

wheat = assay: Test A preemergence; format: in vivo, Triticum aestivum; conditions: for Wheat plant response rating (0 to 100 scale): 125 g ai/ha; for Wheat plant response rating: 500 g ai/ha, 0 to 100 scale where 0 is no effect and 100 is complete control
Method in brief: as §2

[5] = postemergence, visual rating, 13 to 15 days
[6] = 125 g ai/ha, postemergence, visual rating
[7] = Postemergence, 62 g ai/ha, 13 to 15 days
[8] = 0 to 100 scale where 0 is no effect and 100 is complete control

Fc1cnc(Oc2ccccc2-n2cc(C(F)F)cn2)nc1 [Compound 228]
100: Pigweed plant response rating (pigweed) | Plant response rating, Pigweed (pigweed) | Barnyardgrass plant response rating (barnyardgrass [1]; [8])
55: Plant response rating, Ragweed (ragweed; [7])
50: Plant response rating (0 to 100), Galium (galium; 16 g ai/ha, postemergence) | Galium plant response rating (galium; [5])
35: Soybean plant response rating (soybean; [5])
40: Lambsquarters plant response rating (lambsquarters; [5]) | Crabgrass, Large plant response rating (large (Lg) crabgrass [3]) | Plant response rating, Blackgrass (blackgrass; [6])
60: Plant response rating, Soybean (soybean; [7]) | Plant response rating, Sedge, Umbrella (sedge, umbrella)
70: Plant response rating, Galium (galium; [7])
0: Plant response rating (0 to 100), Crabgrass, Large (large (Lg) crabgrass [2]; 16 g ai/ha, postemergence) | Plant response rating (0 to 100), Ryegrass, Italian (Italian ryegrass; 16 g ai/ha, postemergence) | Ryegrass, Italian plant response rating (Italian ryegrass; [5]) | Plant response rating, Ryegrass, Italian (Italian ryegrass; [7]) | Plant response rating, Rice (rice) | Plant response rating (0 to 100), Barnyardgrass (barnyardgrass [4]; 16 g ai/ha, postemergence) | Barnyardgrass plant response rating (barnyardgrass [4]; postemergence, visual rating) | Plant response rating (0 to 100), Nutsedge, Yellow (yellow nutsedge; 16 g ai/ha, postemergence) | Nutsedge, Yellow plant response rating (yellow nutsedge; [5]) | Plant response rating (0 to 100), Blackgrass (blackgrass; 16 g ai/ha, postemergence) | Blackgrass plant response rating (blackgrass; [5]) | Plant response rating, Blackgrass (blackgrass; [7]) | Wheat plant response rating (0 to 100 scale) (wheat) | Wheat plant response rating (wheat)
25: Plant response rating (0 to 100), Soybean (soybean; 16 g ai/ha, postemergence) | Plant response rating (0 to 100), Lambsquarters (lambsquarters; 16 g ai/ha, postemergence)
90: Plant response rating, Crabgrass, Large (large (Lg) crabgrass [3])
20: Barnyardgrass plant response rating (0 to 100 scale, 0 is no effect, 100 is complete control) (barnyardgrass [1]; 125 g ai/ha) | Ragweed plant response rating (ragweed; [5])
65: Plant response rating, Lambsquarters (lambsquarters; [6])
75: Plant response rating, Lambsquarters (lambsquarters; [7])
10: Plant response rating, Ryegrass, Italian (Italian ryegrass; [6])
80: Plant response rating, Soybean (soybean; [6]) | Plant response rating, Galium (galium; [6])
45: Plant response rating, Ragweed (ragweed; [6])
5: Crabgrass, Large plant response rating (large (Lg) crabgrass [2]; [5]) | Plant response rating, Crabgrass, Large (large (Lg) crabgrass [2]; [6]) | Plant response rating, Crabgrass, Large (large (Lg) crabgrass [2]; [7]) | Plant response rating (0 to 100), Ragweed (ragweed; 16 g ai/ha, postemergence) | Plant response rating, Barnyardgrass (barnyardgrass [4]; [6]) | Plant response rating, Barnyardgrass (barnyardgrass [4]; Postemergence, 62 g ai/ha) | Plant response rating, Nutsedge, Yellow (yellow nutsedge; [6]) | Plant response rating, Nutsedge, Yellow (yellow nutsedge; [7])

O=Cc1cccc(Oc2ncc(I)cn2)c1-n1cc(Br)cn1 [Compound 172]
20: Crabgrass, Large plant response rating (large (Lg) crabgrass [3]) | Blackgrass plant response rating (blackgrass; [5])
0: Plant response rating (0 to 100), Soybean (soybean; 8 g ai/ha, postemergence) | Plant response rating (0 to 100), Soybean (soybean; 16 g ai/ha, postemergence) | Soybean plant response rating (soybean; [5]) | Plant response rating, Barnyardgrass (barnyardgrass [1]; 125 g ai/ha, 0 to 100 scale where 0 is no effect and 100 is complete control) | Barnyardgrass plant response rating (barnyardgrass [1]; [8]) | Plant response rating (0 to 100), Crabgrass, Large (large (Lg) crabgrass [2]; 8 g ai/ha, postemergence) | Plant response rating (0 to 100), Crabgrass, Large (large (Lg) crabgrass [2]; 16 g ai/ha, postemergence) | Crabgrass, Large plant response rating (large (Lg) crabgrass [2]; [5]) | Plant response rating, Crabgrass, Large (large (Lg) crabgrass [2]; Postemergence, 62 g ai/ha) | Plant response rating (0 to 100), Galium (galium; 8 g ai/ha, postemergence) | Plant response rating (0 to 100), Galium (galium; 16 g ai/ha, postemergence) | Galium plant response rating (galium; [5]) | Plant response rating (0 to 100), Lambsquarters (lambsquarters; 8 g ai/ha, postemergence) | Plant response rating (0 to 100), Lambsquarters (lambsquarters; 16 g ai/ha, postemergence) | Lambsquarters plant response rating (lambsquarters; [5]) | Plant response rating, Lambsquarters (lambsquarters; Postemergence, 62 g ai/ha) | Plant response rating (0 to 100), Ryegrass, Italian (Italian ryegrass; 8 g ai/ha, postemergence) | Plant response rating (0 to 100), Ryegrass, Italian (Italian ryegrass; 16 g ai/ha, postemergence) | Ryegrass, Italian plant response rating (Italian ryegrass; [5]) | Plant response rating (0 to 100), Ragweed (ragweed; 8 g ai/ha, postemergence) | Plant response rating (0 to 100), Ragweed (ragweed; 16 g ai/ha, postemergence) | Ragweed plant response rating (ragweed; [5]) | Plant response rating, Ragweed (ragweed; Postemergence, 62 g ai/ha) | Plant response rating, Rice (rice) | Plant response rating (0 to 100), Barnyardgrass (barnyardgrass [4]; 8 g ai/ha, postemergence) | Plant response rating, Sedge, Umbrella (sedge, umbrella) | Plant response rating (0 to 100), Nutsedge, Yellow (yellow nutsedge; 8 g ai/ha, postemergence) | Plant response rating (0 to 100), Nutsedge, Yellow (yellow nutsedge; 16 g ai/ha, postemergence) | Plant response rating (0 to 100), Blackgrass (blackgrass; 8 g ai/ha, postemergence) | Plant response rating (0 to 100), Blackgrass (blackgrass; 16 g ai/ha, postemergence) | Plant response rating, Blackgrass (blackgrass; Postemergence, 62 g ai/ha) | Wheat plant response rating (0 to 100 scale) (wheat) | Wheat plant response rating (wheat)
10: Plant response rating, Galium (galium; Postemergence, 62 g ai/ha)
5: Plant response rating, Soybean (soybean; Postemergence, 62 g ai/ha) | Plant response rating, Ryegrass, Italian (Italian ryegrass; Postemergence, 62 g ai/ha) | Plant response rating (0 to 100), Barnyardgrass (barnyardgrass [4]; 16 g ai/ha, postemergence) | Barnyardgrass plant response rating (barnyardgrass [4]; postemergence, visual rating) | Plant response rating, Barnyardgrass (barnyardgrass [4]; Postemergence, 62 g ai/ha) | Nutsedge, Yellow plant response rating (yellow nutsedge; [5]) | Plant response rating, Nutsedge, Yellow (yellow nutsedge; Postemergence, 62 g ai/ha)
30: Plant response rating, Crabgrass, Large (large (Lg) crabgrass [3])
100: Pigweed plant response rating (pigweed) | Plant response rating, Pigweed (pigweed)
